Reference: ChEMBL document CHEMBL5096164, “In Vivo Profiling of a Natural Alkaloid, Anatabine, in Rodents: Pharmacokinetics and Anti-Inflammatory Efficacy” (J Nat Prod, 2021)
Active and inactive are the calls of the source. The rule behind the calls is not given here.

Columns and labels:
[1] = Cmax in C57BL/6 brain at 2 mg/kg, ip measured after 3 to 240 mins by LC-MS/MS analysis; format: ADME, organism-based; set-up: time upper 240 min, time lower 3 min, dose 2 mg/kg, route ip; settings: C57BL/6, mouse
[2] = Bioavailability in Wistar rat plasma at 2 mg/kg, iv administered as bolus dose measured after 5 to 360 mins by LC-MS/MS analysis; format: ADME, organism-based; settings: time 5-360 min
[3] = Bioavailability in rat at 0.06 mg/kg via inhalation; format: ADME, organism-based; settings: in vivo, inhaled or intranasal, route inh
Mus musculus [4] = experiment: Antiinflammatory activity LPS induced mouse model assessed as reduction in macrophage inflammatory protein-1alpha at 1 to 5 mg/kg, ip preincubated for 1 hr followed by LPS stimulation and measured after 2 hrs by luminex xMAP bead based assay; format: functional, organism-based; settings: dose 1-5 mg/kg, time 3.0 hrs
Mus musculus [5] = experiment: Antiinflammatory activity LPS induced mouse model assessed as reduction in IL-6 level in plasma at 5 mg/kg, ip preincubated for 1 hr followed by LPS stimulation and measured after 2 hrs by ELISA method relative to control; format: functional; set-up: scale not given: the % may be the effect or the level left
[6] = Cmax in C57BL/6 plasma at 2 mg/kg, ip measured after 3 to 240 mins by LC-MS/MS analysis; format: ADME, organism-based; set-up: time 3-240 min, dose 2 mg/kg, route ip; settings: C57BL/6, mouse
[7] = Drug uptake in rat aerosol at 261.4 microg/L via inhalation measured for 30 mins; format: ADME; settings: in vivo, inhaled_or_intranasal, 0.5 h, dose 261.4 µg/L
[8] = AUC in C57BL/6 brain at 2 mg/kg, ip measured after 3 to 240 mins by LC-MS/MS analysis; format: ADME, organism-based; set-up: time 3-240 min, dose 2 mg/kg, route ip; settings: C57BL/6, mouse
Mus musculus [9] = experiment: Antiinflammatory activity in ip /LPS induced mouse model assessed as reduction in tumor necrosis factor alpha level in plasma preincubated for 1 hr followed by LPS stimulation and measured after 2 hrs by ELISA method; format: functional, organism-based; settings: dose 1-5 mg/kg, DDE = dose-dependent effect
[10] = Bioavailability in Wistar rat plasma at 5 mg/kg, ip administered as bolus dose measured after 5 to 360 mins by LC-MS/MS analysis; format: ADME, organism-based; settings: time 5-360 min
Mus musculus [11] = experiment: Antiinflammatory activity LPS induced mouse model assessed as reduction in granulocyte-macrophage colony stimulating factor at 1 to 5 mg/kg, ip preincubated for 1 hr followed by LPS stimulation and measured after 2 hrs by luminex xMAP bead based assay; format: functional, organism-based; settings: dose 1-5 mg/kg, time 3.0 hrs
[12] = AUC in rat at 0.06 mg/kg via inhalation; format: ADME, organism-based; set-up: dose 0.06 mg/kg, route inh; settings: in vivo, inhaled or intranasal
Mus musculus [13] = experiment: Antiinflammatory activity LPS induced mouse model assessed as reduction in interferon gamma induced protein 10 at 1 to 5 mg/kg, ip preincubated for 1 hr followed by LPS stimulation and measured after 2 hrs by luminex xMAP bead based assay; format: functional, organism-based; settings: dose 1-5 mg/kg, time 3.0 hrs
[14] = Tmax in C57BL/6 brain at 2 mg/kg, ip measured after 3 to 240 mins by LC-MS/MS analysis; format: ADME, organism-based; settings: C57BL/6, mouse, time 3-240 min
[15] = Drug concentration in carrageenan-induced paw edema in rat respiratory tract at 230.7 microg/L via inhalation measured for 30 mins; format: ADME; settings: inhaled or intranasal, route inh, dose 230.7 µg/L, read-out: Drug uptake
[16] = Half life in rat at 2.73 mg/kg via inhalation; format: ADME, organism-based; settings: in vivo, inhaled or intranasal, route inh
[17] = Half life in Wistar rat plasma at 1 mg/kg, iv administered as bolus dose measured after 5 to 360 mins by LC-MS/MS analysis; format: ADME, organism-based; settings: time 5-360 min
[18] = Drug concentration in carrageenan-induced paw edema in rat respiratory tract at 77.9 microg/L via inhalation measured for 30 mins; format: ADME; settings: inhaled or intranasal, route inh, dose 77.9 µg/L, read-out: Drug uptake
[19] = AUC in Wistar rat plasma at 5 mg/kg, ip administered as bolus dose measured after 5 to 360 mins by LC-MS/MS analysis; format: ADME, organism-based; set-up: dose 5 mg/kg, time upper 360 min, time lower 5 min, route ip
[20] = AUC in Wistar rat plasma at 1 mg/kg, iv administered as bolus dose measured after 5 to 360 mins by LC-MS/MS analysis; format: ADME, organism-based; set-up: time upper 360 min, time lower 5 min, dose 1 mg/kg, route iv
[21] = Half life in Wistar rat plasma at 2 mg/kg, iv administered as bolus dose measured after 5 to 360 mins by LC-MS/MS analysis; format: ADME, organism-based; settings: time 5-360 min
[22] = Drug uptake in MOG (35 to 55 residues)-induced experimental autoimmune encephalomyelitis immunized mouse in plasma at 50 microg/L by LC-MS/MS analysis; format: ADME; settings: dose 50 µg/L
[23] = Drug uptake in MOG (35 to 55 residues)-induced experimental autoimmune encephalomyelitis unimmunized mouse plasma at 25 microg/L by LC-MS/MS analysis; format: ADME; settings: dose 25 µg/L
[24] = Bioavailability in rat at 2.73 mg/kg via inhalation; format: ADME, organism-based; settings: in vivo, inhaled or intranasal, route inh
[25] = Half life in Wistar rat plasma at 5 mg/kg, ip administered as bolus dose measured after 5 to 360 mins by LC-MS/MS analysis; format: ADME, organism-based; settings: time 5-360 min
[26] = Cmax in rat at 2.73 mg/kg via inhalation; format: ADME, organism-based; set-up: dose 2.73 mg/kg, route inh; settings: in vivo, inhaled or intranasal
[27] = Half life in C57BL/6 mouse plasma at 2 mg/kg, ip measured after 3 to 240 mins by LC-MS/MS analysis; format: ADME, organism-based; settings: time 3-240 min
[28] = Drug uptake in MOG (35 to 55 residues)-induced experimental autoimmune encephalomyelitis mouse aerosol at 25 microg/L by LC-MS/MS analysis; format: ADME; settings: in vivo, inhaled_or_intranasal, dose 25 µg/L
Mus musculus [29] = experiment: Antiinflammatory activity ip /LPS induced mouse model assessed as upregulation of IL-10 level preincubated for 1 hr followed by LPS stimulation and measured after 2 hrs by luminex xMAP bead based assay; format: functional, organism-based; settings: dose 1-5 mg/kg, time 3.0 hrs, DDE = dose-dependent effect
Mus musculus [30] = species: Mus musculus; experiment: Antiinflammatory activity in MOG (35 to 55 residues)-induced experimental autoimmune encephalomyelitis mouse aerosol assessed as attenuation of body weight loss at 50 microg/L; format: functional, organism-based; settings: dose 50.0 µg/L
Mus musculus [31] = experiment: Antiinflammatory activity in LPS induced mouse model assessed as reduction in tumor necrosis factor alpha level in plasma at 5 mg/kg, ip preincubated for 1 hr followed by LPS stimulation and measured after 2 hrs by ELISA method relative to control; format: functional; set-up: scale not given: the % may be the effect or the level left
Rattus norvegicus = experiment: Antiinflammatory activity in carrageenan-induced paw edema rat model assessed as recovery of adverse effect at hypothermia at 5 mg/kg, ip or 20 mg/kg administered daily via whole body inhalation; format: functional, organism-based
[32] = Tmax in Wistar rat plasma at 5 mg/kg, ip administered as bolus dose measured after 5 to 360 mins by LC-MS/MS analysis; format: ADME, organism-based; settings: time 5-360 min
[33] = Bioavailability in rat at 0.40 mg/kg via inhalation; format: ADME, organism-based; settings: in vivo, inhaled or intranasal, route inh, dose 0.4 mg/kg
[34] = Cmax in rat at 0.40 mg/kg via inhalation; format: ADME, organism-based; set-up: dose 0.4 mg/kg, route inh; settings: in vivo, inhaled or intranasal, 0.4 mg/kg

## C1=CCC(c2cccnc2)NC1 (stereo not given)
[1]
  Cmax: 3380 ng/mL
[2]
  bioavailability: 68.6%
[3]
  bioavailability: 76.5%
Mus musculus [4]
  Activity: Active
Mus musculus [5]
  Activity: 47.2%
[6]
  Cmax: 1370 ng/mL
[7]
  Drug uptake: 250 µg/L
[8]
  AUC: 1490 ng·h/mL
Mus musculus [9]
  Activity: Dde
[10]
  bioavailability: 68.6%
Mus musculus [11]
  Activity: Active
[12]
  AUC: 91.2 ng·h/mL
Mus musculus [13]
  Activity: Active
[14]
  Tmax: 7.2 min
[15]
  concentration at 0.5 h: 2.42 ng/mL
[16]
  half-life: 3.64 h
[17]
  half-life: 1.14 h
[18]
  concentration at 0.5 h: 0.87 ng/mL
[19]
  AUC: 6820 ng·h/mL
[20]
  AUC: 1990 ng·h/mL
[21]
  half-life: 1.39 h
[22]
  Cp: 1139.7 ng/mL
[23]
  Cp: 531.5 ng/mL
[24]
  bioavailability: 56.4%
[25]
  half-life: 1.39 h
[26]
  Cmax: 780 ng/mL
[27]
  half-life: 0.21 h
[28]
  Drug uptake: 24.8 ng/mL
Mus musculus [29]
  Activity: Dde
Mus musculus [30]
  Activity: Active
Mus musculus [31]
  Activity: 34%
Rattus norvegicus
  Activity: Active
[32]
  Tmax: 9.6 min
[33]
  bioavailability: 80.1%
[34]
  Cmax: 160 ng/mL
